Results published in ChEMBL document CHEMBL6177998, “Rational Design of Dual Degraders by Incorporating Molecular Glue Structural Features into PROTAC Degraders” (J Med Chem, 2025).

Tests used:
Assay type in all cases: cell-based
[1] = biological target: T1, Protein cereblon/Androgen receptor (Homo sapiens, UniProt P10275+Q96SW2); assay: PROTAC activity at CRBN/AR in human VCaP cells assessed as induction of AR degradation at 0.01 uM incubated for 24 hrs by Western blot analysis relative to control
[2] = test system: Protein cereblon/Androgen receptor (Homo sapiens), P10275+Q96SW2 [UNDEFINED MUTATION]; assay: PROTAC activity at CRBN/Androgen receptor splice variant 7 in human 22Rv1 cells assessed as induction of AR-V7 degradation at 0.01 uM incubated for 24 hrs by Western blot analysis relative to control
[3] = biological target: T1, Protein cereblon/Androgen receptor; assay: PROTAC activity at CRBN/AR in human 22Rv1 cells assessed as induction of AR degradation at 0.1 uM incubated for 24 hrs by Western blot analysis relative to control
[4] = test system: Protein cereblon/Androgen receptor (Homo sapiens), P10275+Q96SW2 [UNDEFINED MUTATION]; assay: PROTAC activity at CRBN/Androgen receptor splice variant 7 in human VCaP cells assessed as induction of AR-V7 degradation at 0.01 uM incubated for 24 hrs by Western blot analysis relative to control
[5] = test system: Protein cereblon/Androgen receptor (Homo sapiens), P10275+Q96SW2 [UNDEFINED MUTATION]; assay: PROTAC activity at CRBN/Androgen receptor splice variant 7 in human 22Rv1 cells assessed as induction of AR-V7 degradation at 0.1 uM incubated for 24 hrs by Western blot analysis relative to control
[6] = biological target: T2, Protein cereblon/Eukaryotic peptide chain release factor GTP-binding subunit ERF3A (Homo sapiens, UniProt Q96SW2+P15170); assay: Molecular glue activity at CRBN/GSPT1 in human 22Rv1 cells assessed as induction of GSPT1 degradation at 0.01 uM incubated for 24 hrs by Western blot analysis relative to control
[7] = biological target: T1, Protein cereblon/Androgen receptor; assay: PROTAC activity at CRBN/AR in human VCaP cells assessed as induction of AR degradation at 0.1 uM incubated for 24 hrs by Western blot analysis relative to control
[8] = biological target: T2, Protein cereblon/Eukaryotic peptide chain release factor GTP-binding subunit ERF3A; assay: Molecular glue activity at CRBN/GSPT1 in human 22Rv1 cells assessed as induction of GSPT1 degradation at 0.1 uM incubated for 24 hrs by Western blot analysis relative to control
[9] = test system: Protein cereblon/Androgen receptor (Homo sapiens), P10275+Q96SW2 [UNDEFINED MUTATION]; assay: PROTAC activity at CRBN/Androgen receptor splice variant 7 in human VCaP cells assessed as induction of AR-V7 degradation at 0.1 uM incubated for 24 hrs by Western blot analysis relative to control
[10] = biological target: T1, Protein cereblon/Androgen receptor; assay: PROTAC activity at CRBN/AR in human 22Rv1 cells assessed as induction of AR degradation at 0.01 uM incubated for 24 hrs by Western blot analysis relative to control

Sequence of Protein cereblon/Androgen receptor (Homo sapiens), P10275+Q96SW2 [UNDEFINED MUTATION] (P10275 whole entry, looked up, change not shown, canonical isoform): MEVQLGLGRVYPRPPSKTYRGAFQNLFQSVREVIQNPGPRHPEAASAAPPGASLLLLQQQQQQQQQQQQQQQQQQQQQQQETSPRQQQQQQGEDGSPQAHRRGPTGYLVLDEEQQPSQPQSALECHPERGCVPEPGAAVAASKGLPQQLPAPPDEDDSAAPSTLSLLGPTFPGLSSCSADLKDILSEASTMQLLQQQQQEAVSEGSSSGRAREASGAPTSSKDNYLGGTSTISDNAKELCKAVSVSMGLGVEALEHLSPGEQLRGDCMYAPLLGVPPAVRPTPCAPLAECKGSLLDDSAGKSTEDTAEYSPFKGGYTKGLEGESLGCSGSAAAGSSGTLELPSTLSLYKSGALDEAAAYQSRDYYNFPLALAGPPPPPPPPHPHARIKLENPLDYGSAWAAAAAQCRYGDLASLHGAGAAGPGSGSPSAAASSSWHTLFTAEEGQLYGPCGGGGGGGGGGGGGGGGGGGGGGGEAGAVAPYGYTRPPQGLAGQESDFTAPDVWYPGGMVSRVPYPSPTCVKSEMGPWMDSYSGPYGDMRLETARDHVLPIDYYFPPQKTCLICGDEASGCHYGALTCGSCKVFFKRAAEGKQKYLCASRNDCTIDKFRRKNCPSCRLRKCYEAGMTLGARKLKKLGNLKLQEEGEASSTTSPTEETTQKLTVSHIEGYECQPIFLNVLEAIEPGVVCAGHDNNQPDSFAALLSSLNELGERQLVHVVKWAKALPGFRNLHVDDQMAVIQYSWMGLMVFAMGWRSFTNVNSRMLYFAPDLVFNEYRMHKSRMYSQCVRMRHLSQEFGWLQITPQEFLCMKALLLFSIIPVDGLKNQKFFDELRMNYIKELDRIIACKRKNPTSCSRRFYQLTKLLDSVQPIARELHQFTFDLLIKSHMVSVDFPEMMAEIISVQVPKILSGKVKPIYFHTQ
Sequence of Protein cereblon/Androgen receptor (Homo sapiens), P10275+Q96SW2 [UNDEFINED MUTATION] (Q96SW2 whole entry, looked up, change not shown, canonical isoform): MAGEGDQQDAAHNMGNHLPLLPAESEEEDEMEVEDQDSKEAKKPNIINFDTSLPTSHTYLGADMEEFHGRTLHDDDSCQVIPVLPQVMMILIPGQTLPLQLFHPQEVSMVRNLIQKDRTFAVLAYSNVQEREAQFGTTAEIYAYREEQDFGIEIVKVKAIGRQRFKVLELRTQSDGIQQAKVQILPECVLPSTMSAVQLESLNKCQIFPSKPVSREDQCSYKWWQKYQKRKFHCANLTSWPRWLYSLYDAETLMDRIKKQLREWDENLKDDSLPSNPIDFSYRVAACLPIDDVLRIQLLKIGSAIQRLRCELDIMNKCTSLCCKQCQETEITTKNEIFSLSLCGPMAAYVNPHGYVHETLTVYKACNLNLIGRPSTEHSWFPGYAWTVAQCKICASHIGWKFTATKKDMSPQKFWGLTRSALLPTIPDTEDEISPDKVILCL
T1 sequence (P10275 whole entry, looked up, canonical isoform): as the sequence (P10275 whole entry, looked up, change not shown, canonical isoform) above
T1 sequence (Q96SW2 whole entry, looked up, canonical isoform): as the sequence (Q96SW2 whole entry, looked up, change not shown, canonical isoform) above
T2 sequence (P15170 whole entry, looked up): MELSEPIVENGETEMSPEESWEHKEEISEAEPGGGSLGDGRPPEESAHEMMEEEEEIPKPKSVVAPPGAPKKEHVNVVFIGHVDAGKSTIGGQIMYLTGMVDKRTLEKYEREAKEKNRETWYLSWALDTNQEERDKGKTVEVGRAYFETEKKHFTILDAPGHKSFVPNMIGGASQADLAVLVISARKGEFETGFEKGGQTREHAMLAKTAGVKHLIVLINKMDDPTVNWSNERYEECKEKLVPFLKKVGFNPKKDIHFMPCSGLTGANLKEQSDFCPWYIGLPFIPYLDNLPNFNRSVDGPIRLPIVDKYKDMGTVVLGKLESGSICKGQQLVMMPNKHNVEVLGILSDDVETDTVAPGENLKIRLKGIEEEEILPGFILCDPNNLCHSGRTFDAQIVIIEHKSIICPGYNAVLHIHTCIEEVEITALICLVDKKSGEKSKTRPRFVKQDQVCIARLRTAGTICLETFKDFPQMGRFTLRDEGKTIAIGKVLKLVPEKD
T2 sequence (Q96SW2 whole entry, looked up): as the sequence (Q96SW2 whole entry, looked up, change not shown, canonical isoform) above

| SMILES | Activity [1] [%] | Activity [2] [%] | Activity [3] [%] | Activity [4] [%] | Activity [5] [%] | Activity [6] [%] | Activity [7] [%] | Activity [8] [%] | Activity [9] [%] | Activity [10] [%] |
| --- | --- | --- | --- | --- | --- | --- | --- | --- | --- | --- |
| COc1ccc(C(C)(C)c2cc(Cl)c(OCC3CCN(C(=O)CCCCCNc4ccc(C(=O)N[C@H]5CCC(=O)NC5=O)c(F)c4)CC3)c(C#N)c2)cc1 | 15.7 | 14.5 | < 5 | < 5 | < 5 | < 5 | < 5 | < 5 | < 5 | 23.9 |
| CC(C)(c1ccc(OCCCCl)cc1)c1ccc(OCC2CCN(C(=O)CCCCCNc3ccc4c(c3)C(=O)N(C3CCC(=O)NC3=O)C4=O)CC2)cc1 (stereo not given) | < 5 | < 5 | 30 | < 5 | 5.1 | 37.3 | < 5 | 92.8 | 28.6 | 13.9 |
| CC(C)(c1ccc(OCC2CCN(S(C)(=O)=O)CC2)cc1)c1cc(Cl)c(OCC2CCN(C(=O)CCCCCNc3ccc4c(c3)C(=O)N(C3CCC(=O)NC3=O)C4=O)CC2)c(C#N)c1 (stereo not given) | < 5 | 70.6 | 78 | < 5 | 71.9 | 95.6 | 34.5 | 96.7 | 40.6 | 71.5 |
| CC(C)(c1ccc(OCC2CN(S(C)(=O)=O)C2)cc1)c1cc(Cl)c(OCC2CCN(C(=O)CCCCCNc3ccc4c(c3)C(=O)N(C3CCC(=O)NC3=O)C4=O)CC2)c(C#N)c1 (stereo not given) | 53.6 | 73.9 | 78.3 | < 5 | 81.2 | 93.2 | 75.6 | 96.8 | 48 | 51.3 |
| COc1ccc(C(C)(C)c2cc(Cl)c(OCC3CCN(C(=O)CCCCCNc4cc5c(cc4F)C(=O)N(C4CCC(=O)NC4=O)C5=O)CC3)c(C#N)c2)cc1 (stereo not given) | 25.1 | < 5 | < 5 | < 5 | 25.2 | 74.6 | 17.3 | 88.6 | 10 | < 5 |

Other lines, results leading:

| Activity [1] [%] | Activity [2] [%] | Activity [3] [%] | Activity [4] [%] | Activity [5] [%] | Activity [6] [%] | Activity [7] [%] | Activity [8] [%] | Activity [9] [%] | Activity [10] [%] | SMILES |
| --- | --- | --- | --- | --- | --- | --- | --- | --- | --- | --- |
| 61.3 | 75.5 | 80.5 | 72.3 | 77.7 | 97.5 | 58.8 | 97.2 | 84.5 | 75.1 | CC(C)(c1ccc(OCc2ccncn2)cc1)c1cc(Cl)c(OCC2CCN(C(=O)CCCCCNc3ccc4c(c3)C(=O)N(C3CCC(=O)NC3=O)C4=O)CC2)c(C#N)c1 (stereo not given) |
| < 5 | 68.5 | 79.3 | < 5 | 83.9 | 93.6 | 63 | 96.1 | < 5 | 48 | CC(C)(c1ccc(OCC2CCOCC2)cc1)c1cc(Cl)c(OCC2CCN(C(=O)CCCCCNc3ccc4c(c3)C(=O)N(C3CCC(=O)NC3=O)C4=O)CC2)c(C#N)c1 (stereo not given) |
| 83.9 | 76.8 | 73.5 | 43.6 | 89.1 | 96.6 | 85.1 | 96.1 | 40.1 | 72.5 | CC(C)(c1ccc(OCC2CCOC2)cc1)c1cc(Cl)c(OCC2CCN(C(=O)CCCCCNc3ccc4c(c3)C(=O)N(C3CCC(=O)NC3=O)C4=O)CC2)c(C#N)c1 (stereo not given) |
| 82.5 | 64.2 | 67.1 | 34.8 | 71 | 96.8 | 81.2 | 96.5 | 27.8 | 78.3 | CC(C)(c1ccc(OCC2COC2)cc1)c1cc(Cl)c(OCC2CCN(C(=O)CCCCCNc3ccc4c(c3)C(=O)N(C3CCC(=O)NC3=O)C4=O)CC2)c(C#N)c1 (stereo not given) |
